# Experimental data: the supplement of paper PMC10307832
# Legend:
# Test in all cases: relative viability (nuclei count vs DMSO), 5 days (fraction); higher = more cells survive
# Trametinib + Lapatinib = compound: CC(=O)Nc1cccc(-n2c(=O)n(C3CC3)c(=O)c3c(Nc4ccc(I)cc4F)n(C)c(=O)c(C)c32)c1 [Trametinib] + CS(=O)(=O)CCNCc1ccc(-c2ccc3ncnc(Nc4ccc(OCc5cccc(F)c5)c(Cl)c4)c3c2)o1 [Lapatinib] (partner 2 µM)
# Outline: (§1)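 Nuclei were stained with Hoechst during a one-step fixation (final 0.05% Triton X-100, 1% formaldehyde, 1 ug/ml Hoechst) carried out 5 days after dosing, then counted on 4× images. The cells, lung cancer lines in 1536-well plates, had been dosed by pin tool the day after seeding with one drug alone or a fixed anchor-drug dose plus five library-drug doses (not always all listed) in √10 steps. Relative viability is the nuclei count in treated wells divided by that in vehicle wells, and each value is the median of duplicate plates.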
# [1] = compound: CN1C=C(C2=CC=CC=C21)/C=C\3/C4=C(C=CC=N4)NC3=O + CC(=O)Nc1cccc(-n2c(=O)n(C3CC3)c(=O)c3c(Nc4ccc(I)cc4F)n(C)c(=O)c(C)c32)c1 [Trametinib] (partner 0.02 µM)
# Outline: as §1
# [2] = compound: CN1C=C(C2=CC=CC=C21)/C=C\3/C4=C(C=CC=N4)NC3=O + O=C(c1cc(Cc2n[nH]c(=O)c3ccccc23)ccc1F)N1CCN(C(=O)C2CC2)CC1 [Olaparib] (partner 8 µM)
# Outline: as §1
# [3] = compound: CN1C=C(C2=CC=CC=C21)/C=C\3/C4=C(C=CC=N4)NC3=O + Cc1nc(Nc2ncc(C(=O)Nc3c(C)cccc3Cl)s2)cc(N2CCN(CCO)CC2)n1 [Dasatinib] (partner 0.075 µM)
# Outline: as §1
Cell Line,relative viability (Trametinib + Lapatinib; first compound 0.0025 µM),relative viability (Trametinib + Lapatinib; first compound 0.007906 µM),relative viability (Trametinib + Lapatinib; first compound 0.025 µM),relative viability (Trametinib + Lapatinib; first compound 0.07906 µM),relative viability (Trametinib + Lapatinib; first compound 0.25 µM),relative viability ([1]; first compound 0.02 µM),relative viability ([1]; first compound 0.06325 µM),relative viability ([1]; first compound 0.2 µM),relative viability ([1]; first compound 0.6325 µM),relative viability ([1]; first compound 2 µM),relative viability ([2]; first compound 0.02 µM),relative viability ([2]; first compound 0.06325 µM),relative viability ([2]; first compound 0.2 µM),relative viability ([2]; first compound 0.6325 µM),relative viability ([2]; first compound 2 µM),relative viability ([3]; first compound 0.02 µM),relative viability ([3]; first compound 0.06325 µM),relative viability ([3]; first compound 0.2 µM),relative viability ([3]; first compound 0.6325 µM),relative viability ([3]; first compound 2 µM)
HCC-15,0.806,0.461,0.572,0.328,0.223,0.411,0.392,0.403,0.377,0.367,0.716,0.679,0.733,0.713,0.837,0.53,0.577,0.565,0.544,0.496
HCC-44,0.996,0.868,0.929,0.701,0.493,1.08,1.12,0.968,1.04,0.884,0.908,0.954,1.02,0.997,0.942,,,,,
HCC-78,0.827,0.533,0.988,0.299,0.469,0.522,0.675,0.706,0.553,0.694,0.78,0.773,0.688,0.754,0.818,0.317,0.578,,0.34,0.37
HCC-366,0.88,0.938,0.614,0.58,0.161,0.279,0.316,0.307,0.291,0.318,0.315,0.287,0.36,0.372,0.288,0.641,0.455,0.44,0.593,0.468
HCC-827,0.191,0.164,0.178,0.208,0.228,0.509,0.528,,0.571,0.566,0.624,0.61,,0.638,0.764,0.296,0.354,,0.28,0.427
HOP-62,0.949,0.903,0.387,0.39,0.104,0.424,0.415,,0.354,0.325,0.537,0.509,,0.968,0.629,0.683,0.709,0.592,0.599,0.648
IA-LM,0.251,0.31,0.101,0.136,0.0905,,,,,,0.726,0.726,0.749,0.896,0.802,,,,,
LC-2-ad,0.917,0.839,0.664,0.639,0.285,0.98,0.865,0.967,0.953,0.87,0.658,0.705,0.722,0.72,0.663,0.572,0.482,0.45,0.597,0.515
LCLC-97TM1,0.666,0.944,0.666,0.3,0.138,,0.19,0.189,0.198,0.19,,0.348,0.309,0.314,0.289,0.529,0.76,0.876,0.968,0.882
LCLC-103H,,,,,,0.645,0.691,0.718,0.667,0.681,0.764,0.727,0.801,0.825,0.808,0.516,0.355,0.481,0.417,0.478
NCI-H441,,,,,,0.468,0.511,0.492,0.544,0.52,0.52,0.47,0.611,0.405,0.588,0.541,0.638,0.548,0.538,0.677
NCI-H522,,,,,,0.746,0.712,0.793,0.752,0.852,0.615,0.685,0.679,0.556,0.691,0.896,0.803,0.844,0.784,0.874
NCI-H1299,1.01,0.994,0.901,0.87,0.555,,,,,,0.96,0.97,1,1,0.952,,,,,
NCI-H1563,0.973,0.937,0.808,0.84,0.61,,,,,,,,,,,0.472,0.437,0.444,0.488,0.414
NCI-H1623,,,,,,,,,,,,,,,,0.469,0.625,0.49,0.457,0.505
NCI-H1648,,,,,,0.691,0.543,0.42,0.532,0.482,1.26,1.01,1.02,0.74,0.496,,,,,
NCI-H1703,,1.09,0.887,0.96,0.859,,,,,,0.377,0.513,0.419,0.401,0.421,,,,,
NCI-H2342,,,,,,0.921,0.753,0.725,0.655,0.686,0.49,0.449,0.47,0.453,0.461,0.316,0.313,0.284,0.304,0.318
SW 900,,,,,,0.763,,,0.676,0.799,0.463,,,0.768,0.655,0.495,0.585,,0.537,0.481
